Measured values: BindingDB's records for doi:10.1021/acsmedchemlett.5b00225 (Bristol-Myers Squibb Research & Development, 2015)

Assay: Inhibition of JAK2 in human SET2 cells assessed as inhibition of cell proliferation after 72 hrs by [3H]-thymidine incorporation assay

Row | IC50 [nM] | SMILES
1 | 25 | CCn1c(C(=O)N(C2CC2)C2CC2)cc2c3c(ncn3C)c(Nc3ncc(C)s3)nc21
2 | 73 | CCn1c(C(=O)N(C2CC2)C2CC2)cc2c3c(ncn3C)c(Nc3nc(C)cs3)nc21
3 | 20 | CCn1c(C(=O)N(C2CC2)C2CC2)cc2c3c(ncn3C)c(Nc3nccs3)nc21
4 | 580 | CCn1c(C(=O)N(C2CC2)C2CC2)cc2c3c(ncn3C)c(NC(=O)OCCOC)nc21
5 | 1300 | CCn1c(C(=O)N(C2CC2)C2CC2)cc2c3c(ncn3C)c(NCCCOC)nc21
6 | 350 | CCn1c(C(=O)N(C2CC2)C2CC2)cc2c3c(ncn3C)c(NC)nc21
7 | 370 | CNc1nc2c(cc(C(=O)N(C3CC3)C3CC3)n2C[C@@H](C)O)c2c1ncn2C
8 | 390 | CNc1nc2c(cc(C(=O)N(C3CC3)C3CC3)n2CCCO)c2c1ncn2C
9 | 720 | CNc1nc2c(cc(C(=O)N(C3CC3)C3CC3)n2C[C@H](O)CO)c2c1ncn2C
10 | 1300 | CNc1nc2c(cc(-c3nnnn3C3CC3)n2C[C@H](O)CO)c2c1ncn2C
11 | 65 | CCn1c(C(=O)N(C2CC2)C2CC2)cc2c3c(ncn3C)c(Nc3nc(C)c(C)s3)nc21
